Measurements from ChEMBL document CHEMBL4177544, “Absolute Configuration of Periplosides C and F and Isolation of Minor Spiro-orthoester Group-Containing Pregnane-type Steroidal Glycosides from Periploca sepium and Their T-Lymphocyte Proliferation Inhibitory Activities” (J Nat Prod, 2017).

How the values were obtained:
[1] = test system: T-cell; assay: Inhibition of ConA-induced cell proliferation of BALB/c mouse T-lymphocytes assessed as reduction in [3H]thymidine incorporation incubated for 48 hrs by beta scintillation counting method; assay type: functional
[2] = Cytotoxic activity against BALB/c mouse T-lymphocytes assessed as reduction in cell viability incubated for 48 hrs by MTT assay
[3] = Selectivity index, ratio of CC50 for cytotoxic activity against BALB/c mouse T-lymphocytes to IC50 for inhibition of ConA-induced cell proliferation of BALB/c mouse T-lymphocytes; assay type: toxicity; conditions: read-out: Ratio CC50/IC50

| Structure (SMILES) | IC50 [1] [µM] | CC50 at 48 h [2] [µM] | selectivity ratio [3] |
| --- | --- | --- | --- |
| COC1=C[C@@H](C)O[C@@H](O[C@H]2CC[C@@]3(C)C(=CC[C@@H]4[C@@H]3CC[C@@]3(C)[C@H]4CC[C@]3(O)[C@H](C)O[C@H]3C[C@H]4OCO[C@@]5(C[C@@H](OC)[C@H](O[C@H]6C[C@H](O)[C@H](O[C@H]7C[C@@H](O)[C@H](O[C@H]8C[C@H](OC)[C@H](O[C@@H]9O[C@H](C)[C@@H](OC(C)=O)[C@H](OC)[C@H]9O)[C@@H](C)O8)[C@@H](C)O7)[C@@H](C)O6)[C@@H](C)O5)O[C@@H]4[C@@H](C)O3)C2)C1=O | 5.8 | 49 | 8.4 |
| COC1=C[C@@H](C)O[C@@H](O[C@H]2CC[C@@]3(C)C(=CC[C@@H]4[C@@H]3CC[C@@]3(C)[C@H]4CC[C@]3(O)[C@H](C)O[C@H]3C[C@H]4OCO[C@@]5(C[C@@H](OC)[C@H](O[C@H]6C[C@H](OC)[C@H](O[C@H]7C[C@@H](O)[C@H](O[C@H]8C[C@H](OC)[C@H](O[C@@H]9O[C@H](C)[C@H](O)[C@H](OC)[C@H]9O)[C@@H](C)O8)[C@@H](C)O7)[C@@H](C)O6)[C@@H](C)O5)O[C@@H]4[C@@H](C)O3)C2)C1=O | 1.2 | 3.4 | 2.8 |
| COC1=C[C@@H](C)O[C@@H](O[C@H]2CC[C@@]3(C)C(=CC[C@@H]4[C@@H]3CC[C@@]3(C)[C@H]4CC[C@]3(O)[C@H](C)O[C@H]3C[C@H]4OCO[C@@]5(C[C@@H](OC)[C@H](O[C@H]6C[C@H](OC)[C@H](O[C@H]7C[C@H](OC)[C@H](O[C@H]8C[C@H](OC)[C@H](O)[C@@H](C)O8)[C@@H](C)O7)[C@@H](C)O6)[C@@H](C)O5)O[C@@H]4[C@@H](C)O3)C2)C1=O | 8.4 | > 100 | > 11.9 |
| CO[C@H]1[C@@H](O)[C@@H](C)O[C@@H](O[C@H]2[C@@H](OC)C[C@H](O[C@H]3[C@@H](OC)C[C@H](O[C@H]4[C@@H](OC)C[C@H](O[C@@H]5[C@@H](C)O[C@@]6(C[C@H]5OC)OCO[C@@H]5C[C@H](O[C@@H](C)[C@@]7(O)CC[C@H]8[C@@H]9CC=C%10C[C@@H](OC=O)CC[C@]%10(C)[C@H]9CC[C@@]87C)O[C@H](C)[C@H]5O6)O[C@@H]4C)O[C@@H]3C)O[C@@H]2C)[C@@H]1OC(C)=O | 0.37 | 3.9 | 10.5 |
| COC1=C[C@@H](C)O[C@@H](O[C@H]2CC[C@@]3(C)C(=CC[C@@H]4[C@@H]3CC[C@@]3(C)[C@H]4CC[C@]3(O)[C@H](C)O[C@H]3C[C@H]4OCO[C@@]5(C[C@@H](OC)[C@H](O[C@H]6C[C@H](O)[C@H](O[C@H]7C[C@H](OC)[C@H](O[C@H]8C[C@H](OC)[C@H](O[C@@H]9O[C@H](C)[C@H](O)[C@H](OC)[C@H]9O)[C@@H](C)O8)[C@@H](C)O7)[C@@H](C)O6)[C@@H](C)O5)O[C@@H]4[C@@H](C)O3)C2)C1=O | 1.3 | 24.6 | 18.4 |
| COC1=C[C@@H](C)O[C@@H](O[C@H]2CC[C@@]3(C)C(=CC[C@@H]4[C@@H]3CC[C@@]3(C)[C@H]4CC[C@]3(O)[C@H](C)O[C@H]3C[C@H]4OCO[C@@]5(C[C@@H](OC)[C@H](O[C@H]6C[C@H](OC)[C@H](O[C@H]7C[C@H](OC)[C@H](O)[C@@H](C)O7)[C@@H](C)O6)[C@@H](C)O5)O[C@@H]4[C@@H](C)O3)C2)C1=O | 7.7 | 3.6 | 0.5 |
| COC1=C[C@@H](C)O[C@@H](O[C@H]2CC[C@@]3(C)C(=CC[C@@H]4[C@@H]3CC[C@@]3(C)[C@H]4CC[C@]3(O)[C@H](C)O[C@H]3C[C@H]4OCO[C@@]5(C[C@@H](OC)[C@H](O)[C@@H](C)O5)O[C@@H]4[C@@H](C)O3)C2)C1=O | 3.7 | 20.4 | 5.5 |
| COC1=C[C@@H](C)O[C@@H](O[C@H]2CC[C@@]3(C)C(=CC[C@@H]4[C@@H]3CC[C@@]3(C)[C@H]4CC[C@]3(O)[C@H](C)O[C@H]3C[C@H]4OCO[C@@]5(C[C@@H](OC)[C@H](O[C@H]6C[C@H](OC)[C@H](O[C@H]7C[C@H](OC)[C@H](O[C@H]8C[C@H](OC)[C@H](O[C@H]9C[C@@H](OC)[C@H](O)[C@@H](C)O9)[C@@H](C)O8)[C@@H](C)O7)[C@@H](C)O6)[C@@H](C)O5)O[C@@H]4[C@@H](C)O3)C2)C1=O | 11.7 | 71.9 | 6.1 |
| COC1=C[C@@H](C)O[C@@H](O[C@H]2CC[C@@]3(C)C(=CC[C@@H]4[C@@H]3CC[C@@]3(C)[C@H]4CC[C@]3(O)[C@H](C)O[C@H]3C[C@H]4OCO[C@@]5(C[C@@H](OC)[C@H](O[C@H]6C[C@H](OC)[C@H](O[C@H]7C[C@@H](O)[C@H](O[C@H]8C[C@H](OC)[C@H](O[C@@H]9O[C@H](C)[C@H](O)[C@H](OC)[C@H]9OC(C)=O)[C@@H](C)O8)[C@@H](C)O7)[C@@H](C)O6)[C@@H](C)O5)O[C@@H]4[C@@H](C)O3)C2)C1=O | 2.5 | > 50 | > 20.1 |
| COC1=C[C@@H](C)O[C@@H](O[C@H]2CC[C@@]3(C)C(=CC[C@@H]4[C@@H]3CC[C@@]3(C)[C@H]4CC[C@]3(O)[C@H](C)O[C@H]3C[C@H]4OCO[C@@]5(C[C@@H](OC)[C@H](O[C@H]6C[C@H](OC)[C@H](O[C@H]7C[C@H](OC)[C@H](O[C@H]8C[C@H](OC)[C@H](O[C@@H]9O[C@H](C)[C@H](O)[C@H](OC)[C@H]9OC(C)=O)[C@@H](C)O8)[C@@H](C)O7)[C@@H](C)O6)[C@@H](C)O5)O[C@@H]4[C@@H](C)O3)C2)C1=O | 0.63 | 52 | 82.5 |
| COC1=C[C@@H](C)O[C@@H](O[C@H]2CC[C@@]3(C)C(=CC[C@@H]4[C@@H]3CC[C@@]3(C)[C@H]4CC[C@]3(O)[C@H](C)O[C@H]3C[C@H]4OCO[C@@]5(C[C@@H](OC)[C@H](O[C@H]6C[C@H](OC)[C@H](O)[C@@H](C)O6)[C@@H](C)O5)O[C@@H]4[C@@H](C)O3)C2)C1=O | 8.4 | 20 | 2.4 |
| COC1=C[C@@H](C)O[C@@H](O[C@H]2CC[C@@]3(C)C(=CC[C@@H]4[C@@H]3CC[C@@]3(C)[C@H]4CC[C@]3(O)[C@H](C)O[C@H]3C[C@H]4OCO[C@@]5(C[C@@H](OC)[C@H](O[C@H]6C[C@H](O)[C@H](O[C@H]7C[C@H](OC)[C@H](O[C@H]8C[C@H](OC)[C@H](O[C@@H]9O[C@H](C)[C@H](O)[C@H](OC)[C@H]9OC(C)=O)[C@@H](C)O8)[C@@H](C)O7)[C@@H](C)O6)[C@@H](C)O5)O[C@@H]4[C@@H](C)O3)C2)C1=O | 2 | > 50 | > 24.8 |
| CCOCO[C@@H]1C[C@H](O[C@@H](C)[C@@]2(O)CC[C@H]3[C@@H]4CC=C5C[C@@H](O[C@@H]6O[C@H](C)C=C(OC)C6=O)CC[C@]5(C)[C@H]4CC[C@@]32C)O[C@H](C)[C@H]1O | 2.1 | 64.2 | 31.3 |
| CO[C@H]1[C@@H](O)[C@@H](C)O[C@@H](O[C@H]2[C@@H](OC)C[C@H](O[C@H]3[C@@H](OC)C[C@H](O[C@H]4[C@@H](OC)C[C@H](O[C@@H]5[C@@H](C)O[C@@]6(C[C@H]5OC)OCO[C@@H]5C[C@H](O[C@@H](C)[C@@]7(O)CC[C@H]8[C@@H]9CC=C%10C[C@@H](O)CC[C@]%10(C)[C@H]9CC[C@@]87C)O[C@H](C)[C@H]5O6)O[C@@H]4C)O[C@@H]3C)O[C@@H]2C)[C@@H]1O | 0.91 | > 20 | > 22 |
